“And” between values parts separate entries of the source, which are not always exact repeats. Identical values can stand only once. Counter-ions that a name gives are not always drawn.
Experiments:
[1] = Particle size analysis by HELOS (H1551) & RODOS; type: physicochemical; settings: hydrochloride
Excerpt: Particle Size Analysis (Analysed by HELOS (H1551) & RODOS)

[2] = reported in prior art, cited from earlier work; for Thermal stability: elevated temperature, hydrochloride
[3] = XRD analysis after 6 months storage at ambient conditions (polymorph stability); type: physicochemical; settings: hydrochloride
Excerpt: In embodiment of the present invention the stable polymorph IV of tiagabine hydrochloride may be obtained in particle size with volume mean diameter (VMD) less than 20 microns.

[4] = Solubility of tiagabine hydrochloride in various solvents at room temperature; type: physicochemical; settings: 100 mg sample

Cc1ccsc1C(=CCCN1CCC[C@@H](C(=O)O)C1)c1sccc1C [Form I, tiagabine hydrochloride]
Volume mean diameter (VMD) [1]: 60.2 microns | Thermal stability [2]: less stable at elevated temperature | Hygroscopicity [2]: non-hygroscopic | Stability [2]: stable

Cc1ccsc1C(=CCCN1CCC[C@@H](C(=O)O)C1)c1sccc1C [Form II, tiagabine hydrochloride]
Thermal stability [2]: thermally stable | Hygroscopicity [2]: non-hygroscopic

Cc1ccsc1C(=CCCN1CCC[C@@H](C(=O)O)C1)c1sccc1C [Form IV, tiagabine hydrochloride]
Volume mean diameter (VMD) [1]: 16.7 microns and 19.8 microns | Change in x-ray diffraction pattern on storage (polymorphic stability) [3]: matches the XRD of ‘0’ day sample | Change in x-ray diffraction pattern on storage (polymorphic stability) ([3]; listed as polymorph IV): no change in the x-ray diffraction pattern

Cc1ccsc1C(=CCCN1CCC[C@@H](C(=O)O)C1)c1sccc1C [tiagabine hydrochloride]
Solubility: volume of solvent ([4]; Acetone): 24 mL | Solubility: volume of solvent ([4]; Acetonitrile): >100 mL | Solubility: volume of solvent ([4]; DMF): 0.5 mL | Solubility: volume of solvent ([4]; Ethanol): 0.3 mL | Solubility: volume of solvent ([4]; Ethylacetate): >100 mL | Solubility: volume of solvent ([4]; IPA): 1.3 mL | Solubility: volume of solvent ([4]; Methanol): 0.2 mL | Solubility: volume of solvent ([4]; Toluene): >100 mL | Solubility: volume of solvent ([4]; Water): 0.7 mL

Reference: patent US7667042B2, “Stable polymorphic forms of an anticonvulsant” (Sun Pharma Advanced Research Company Ltd., priority 2003, dated 2010)
